In ChEMBL document CHEMBL1132409, “Pharmacological treatment of obesity: therapeutic strategies” (J Med Chem, 1999):
One block for each compound: values may come before it.

How the values were obtained:
Rhesus monkey [1] = experiment: Effective dose to stimulate lipolysis in Rhesus monkeys (iv); format: functional, Cercopithecidae; conditions: Macaca mulatta
[2] = target: T1, Neuropeptide Y receptor type 1 (Rattus norvegicus, UniProt P21555); experiment: The compound was tested for the binding affinity against Neuropeptide Y receptor type 1 in rat
T1 sequence (P21555 whole entry): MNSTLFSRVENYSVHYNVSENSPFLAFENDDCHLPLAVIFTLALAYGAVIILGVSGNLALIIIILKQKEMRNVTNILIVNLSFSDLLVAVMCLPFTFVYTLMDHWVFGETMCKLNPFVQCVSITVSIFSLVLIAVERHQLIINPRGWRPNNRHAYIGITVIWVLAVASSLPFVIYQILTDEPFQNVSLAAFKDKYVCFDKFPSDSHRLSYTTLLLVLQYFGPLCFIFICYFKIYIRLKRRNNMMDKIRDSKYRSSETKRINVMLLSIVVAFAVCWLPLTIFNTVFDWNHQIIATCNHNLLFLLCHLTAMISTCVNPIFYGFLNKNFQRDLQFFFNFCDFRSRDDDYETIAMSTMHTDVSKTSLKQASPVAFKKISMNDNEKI

[3] = target: T2, Neuropeptide Y receptor type 5 (Rattus norvegicus, UniProt Q63634); experiment: The compound was tested for the binding affinity against Neuropeptide Y receptor type 5 in rat
T2 sequence (Q63634 whole entry): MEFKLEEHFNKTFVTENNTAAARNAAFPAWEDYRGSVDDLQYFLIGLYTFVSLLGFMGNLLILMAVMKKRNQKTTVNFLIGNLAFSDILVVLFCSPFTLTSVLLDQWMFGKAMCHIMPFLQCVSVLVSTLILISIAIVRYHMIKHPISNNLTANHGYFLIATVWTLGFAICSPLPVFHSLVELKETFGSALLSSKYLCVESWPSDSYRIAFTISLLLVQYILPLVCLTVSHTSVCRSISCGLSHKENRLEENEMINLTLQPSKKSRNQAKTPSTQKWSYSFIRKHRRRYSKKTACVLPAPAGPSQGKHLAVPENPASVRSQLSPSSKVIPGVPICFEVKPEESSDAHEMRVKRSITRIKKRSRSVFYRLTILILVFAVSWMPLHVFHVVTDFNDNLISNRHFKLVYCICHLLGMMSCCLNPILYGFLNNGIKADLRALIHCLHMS

[4] = target: T3, Beta-3 adrenergic receptor (Homo sapiens, UniProt P13945); experiment: Binding affinity towards human Beta-3 adrenergic receptor
Target sequence in this assay (P13945 whole entry): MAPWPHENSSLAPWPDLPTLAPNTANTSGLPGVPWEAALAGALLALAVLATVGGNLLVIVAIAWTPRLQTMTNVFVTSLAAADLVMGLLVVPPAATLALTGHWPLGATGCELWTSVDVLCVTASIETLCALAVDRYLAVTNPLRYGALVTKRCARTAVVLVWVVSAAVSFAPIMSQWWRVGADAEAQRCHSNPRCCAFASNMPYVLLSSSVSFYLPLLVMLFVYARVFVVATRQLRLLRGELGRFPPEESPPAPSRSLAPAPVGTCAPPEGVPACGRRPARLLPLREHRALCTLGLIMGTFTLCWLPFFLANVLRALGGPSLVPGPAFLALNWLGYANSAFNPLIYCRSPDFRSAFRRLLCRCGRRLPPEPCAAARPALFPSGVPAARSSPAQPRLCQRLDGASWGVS

[5] = target: T3, Beta-3 adrenergic receptor; experiment: Beta-3 adrenergic receptor intrinsic activity relative to isoproterenol
Target sequence in this assay (P13945 whole entry, looked up): as the sequence (P13945 whole entry) above

[6] = target: T3, Beta-3 adrenergic receptor; experiment: Binding affinity towards Beta-3 adrenergic receptor
Target sequence in this assay (P13945 whole entry): as above

[7] = Bioavailability in rat; format: ADME, organism-based; conditions: in vivo, read-out: Bioavailabiility
[8] = Bioavailability in dog; format: ADME, organism-based, Canis lupus familiaris; conditions: in vivo
Rattus norvegicus = experiment: Ability to inhibit the food intake of Sprague-Dawley rats at 30 mg/kg after intraperitoneal administration.; format: functional; conditions: ip
[9] = target: T4, Neuropeptide Y receptor type 1 (Homo sapiens, UniProt P25929); experiment: The compound was tested for the binding affinity against Neuropeptide Y receptor type 1
T4 sequence (P25929 whole entry): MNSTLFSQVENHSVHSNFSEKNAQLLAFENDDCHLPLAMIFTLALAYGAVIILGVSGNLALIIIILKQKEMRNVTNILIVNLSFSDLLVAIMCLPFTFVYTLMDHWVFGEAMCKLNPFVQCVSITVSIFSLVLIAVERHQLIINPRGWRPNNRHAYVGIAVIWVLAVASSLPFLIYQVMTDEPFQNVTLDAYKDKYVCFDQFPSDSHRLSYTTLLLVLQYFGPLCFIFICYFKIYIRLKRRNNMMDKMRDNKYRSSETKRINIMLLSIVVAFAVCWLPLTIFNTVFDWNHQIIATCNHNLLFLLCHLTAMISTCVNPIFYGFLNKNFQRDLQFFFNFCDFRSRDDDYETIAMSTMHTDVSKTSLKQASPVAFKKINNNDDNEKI

[10] = Oral bioavailability of the compound.; format: ADME, organism-based; conditions: in vivo
[11] = target: T5, Cholecystokinin receptor type A (Mus musculus, UniProt O08786); experiment: Binding affinity in Cholecystokinin type A receptor binding assay […]
T5 sequence (O08786 whole entry): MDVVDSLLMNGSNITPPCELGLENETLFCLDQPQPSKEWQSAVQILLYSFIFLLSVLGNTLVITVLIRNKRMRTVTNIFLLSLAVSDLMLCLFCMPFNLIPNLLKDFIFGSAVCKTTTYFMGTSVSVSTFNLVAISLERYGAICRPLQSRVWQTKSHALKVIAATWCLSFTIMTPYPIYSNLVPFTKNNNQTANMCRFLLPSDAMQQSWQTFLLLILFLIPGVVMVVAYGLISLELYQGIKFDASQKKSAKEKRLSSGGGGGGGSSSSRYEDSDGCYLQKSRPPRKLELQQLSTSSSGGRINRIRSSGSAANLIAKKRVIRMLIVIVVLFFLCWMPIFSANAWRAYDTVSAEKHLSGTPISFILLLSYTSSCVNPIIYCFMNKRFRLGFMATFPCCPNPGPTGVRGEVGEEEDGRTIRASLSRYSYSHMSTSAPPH

[12] = Bioavailability in dogs; format: ADME, organism-based, Canis lupus familiaris; conditions: dog, in vivo; read-out: Bioavailabiility
Rhesus monkey [13] = experiment: Effective dose to stimulate lipolysis in Rhesus monkeys(iv); format: functional, Cercopithecidae; conditions: Macaca mulatta
[14] = target: T6, Neuropeptide Y receptor type 2 (Rattus norvegicus, UniProt Q9ERC0); experiment: The compound was tested for the binding affinity against Neuropeptide Y receptor type 2
T6 sequence (Q9ERC0 whole entry): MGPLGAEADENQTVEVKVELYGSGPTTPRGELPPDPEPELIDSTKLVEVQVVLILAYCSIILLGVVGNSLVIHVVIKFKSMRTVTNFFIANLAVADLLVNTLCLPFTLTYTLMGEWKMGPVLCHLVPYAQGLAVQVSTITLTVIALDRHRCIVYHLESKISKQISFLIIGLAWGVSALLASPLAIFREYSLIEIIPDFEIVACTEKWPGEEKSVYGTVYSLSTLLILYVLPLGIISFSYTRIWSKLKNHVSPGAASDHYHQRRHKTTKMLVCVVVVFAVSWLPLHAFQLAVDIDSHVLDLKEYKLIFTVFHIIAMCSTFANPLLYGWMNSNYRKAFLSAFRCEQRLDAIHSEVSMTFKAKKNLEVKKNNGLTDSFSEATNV

[15] = target: T1, Neuropeptide Y receptor type 1; experiment: The compound was tested for the binding affinity against NPY1 (Neuropeptide Y receptor type 1)
[16] = target: Neuropeptide Y receptor type 4 (Rattus norvegicus, UniProt Q63447); experiment: The compound was tested for the binding affinity against Neuropeptide Y receptor type 4
[17] = Oral bioavailability in rat; format: ADME, organism-based; conditions: in vivo

Chain of Neuropeptide Y receptor type 4 (Q63447 whole entry): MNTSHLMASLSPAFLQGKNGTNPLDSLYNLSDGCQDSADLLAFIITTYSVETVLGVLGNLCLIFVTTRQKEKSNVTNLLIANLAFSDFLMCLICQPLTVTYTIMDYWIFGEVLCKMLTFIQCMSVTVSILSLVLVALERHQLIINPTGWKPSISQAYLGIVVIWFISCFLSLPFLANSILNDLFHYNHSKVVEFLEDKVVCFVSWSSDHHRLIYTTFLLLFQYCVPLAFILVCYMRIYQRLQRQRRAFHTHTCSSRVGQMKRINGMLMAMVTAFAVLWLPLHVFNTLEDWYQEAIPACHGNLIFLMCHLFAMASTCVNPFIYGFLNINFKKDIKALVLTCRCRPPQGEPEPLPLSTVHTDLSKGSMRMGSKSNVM

SMILES: Nc1ccc(OC[C@@H](O)CNCCc2ccc(NS(=O)(=O)c3ccc(I)cc3)cc2)cn1
ED50 (Rhesus monkey [1]): 0.8 mg/kg

IC50 [2]: 1.7 nM
SMILES: Clc1ccc(OCc2nc3c(OCCCN4CCCCC4)cccc3n2CCCC2CCCNC2)cc1 (configuration not stated)

IC50 [3]: 4.1 nM
SMILES: Cc1cc(N2CCCC2)cc(/C=C/c2cccc(C(F)(F)F)c2)n1

EC50 [4]: 30 nM
SMILES: CC(C)(Cc1ccc(Oc2ccc(C(N)=O)cn2)cc1)NC[C@H](O)COc1cccc2[nH]c(=O)[nH]c12

Intrinsic activity [5]: > 80%
EC50 [6]: < 300 nM
SMILES: C[C@H](Cc1ccc(OCP(=O)(O)c2ccccc2)cc1)NC[C@H](O)COc1ccc(O)c(NS(C)(=O)=O)c1

bioavailability [7]: 4%
F [8]: 41%
bioavailability [8]: 47%
SMILES: CC(C)c1ccc(S(=O)(=O)Nc2ccc(CCNC[C@H](O)COc3ccc(N)nc3)cc2)cc1

Intrinsic activity [5]: > 80%
EC50 [6]: < 300 nM
SMILES: CCCCCCP(=O)(O)COc1ccc(C[C@@H](C)NC[C@H](O)COc2ccc(O)c3c2CCC(=O)N3)cc1

bioavailability [7]: < 10%
EC50 [4]: 300 nM
SMILES: Cn1c(C(=O)O)cc2cc(OCCNC[C@H](O)c3ccc(N)nc3)ccc21

SMILES: CN(C)CCCNc1nc(NC[C@H]2CC[C@H](CNS(=O)(=O)c3cccc4ccccc34)CC2)nc2ccccc12
inhibition in vivo at 30 mg/kg (Rattus norvegicus): 96%

SMILES: CC[C@H]1CC[C@@](c2cccc(OCOC)c2)(N2CCN(c3ccccc3)CC2)CC1
IC50 [9]: 39 nM

bioavailability [10]: 1%
SMILES: CCCCCCNC(=O)Nc1ccc(S(=O)(=O)Nc2ccc(CCNC[C@H](O)COc3ccc(O)cc3)cc2)cc1 [L-755507]

IC50 [3]: 2.3 nM
SMILES: COc1ccc(-c2cc(NC(=O)CC34CCCC3Cc3ccccc3C4)[nH]n2)cc1OC (configuration not stated)

Ki [11]: 7 nM
SMILES: CCCCNC(=O)[C@@H]1Cc2ccccc2N1C(=O)CC(N)CC (some centres not stated)

Ki [4]: 9 nM
SMILES: CS(=O)(=O)Nc1cc([C@@H](O)CN[C@H](Cc2cccc(Cl)c2)c2ccc(OC(F)F)cc2)ccc1O

IC50 [3]: 8.3 nM
SMILES: COc1ccc(-c2cc(NC(=O)Cc3ccc4ccccc4c3)[nH]n2)cc1OC

bioavailability [12]: 51%
SMILES: O=S(=O)(Nc1ccc(CCNC[C@H](O)c2cccnc2)cc1)c1ccc(I)cc1

bioavailability [8]: 47%
SMILES: O=S(=O)(Nc1ccc(CCNC[C@H](O)COc2cccnc2)cc1)c1ccc(I)cc1 [L-749372]
ED50 (Rhesus monkey [13]): 2 mg/kg

IC50 [14]: > 5 µM
IC50 [15]: > 5 µM
IC50 [16]: > 5 µM
SMILES: O=C(CN1CCC(n2c(=O)[nH]c3ccccc32)CC1)Nc1ccc2c(c1)-c1ccccc1C2=O

SMILES: COc1ccc(N(C(=O)CN2C(=O)C(Cc3n[nH]c4ccccc34)C(=O)N(c3ccccc3)c3ccccc32)C(C)C)cc1 (configuration not stated)
bioavailability [17]: 8%
